Assay results reported in publication PMC9855371, “Antiparasitic Activity of Fluorophenyl-Substituted Pyrimido[1,2-a]benzimidazoles” (Biomedicines, 2023).

Columns and labels:
Vero cells = assay: In vitro cytotoxicity MTT assay in Vero cells; assay type: cell-based; settings: Chlorocebus sabaeus; after 72 h; Vero cells (African green monkey kidney epithelial cells); means of n = 3, SD ± 15%
Description: MTT assays were carried out for a cytotoxicity evaluation of the test compounds. Briefly, Vero cells were cultured in 96-well plates (5 × 10^3 cells/well/200 µL) for 24 h in RPMI 1640 medium with 10% FBS and 5% CO2, at 37 °C. Cells were washed with PBS, followed by treatment with test compounds for 72 h at varying concentrations (50, 25, 12.5, 6.25, 3.13, 1.65, and 0.75 µg mL^−1) in 10% FBS medium. Cells treated solely with medium in 2% FBS were used as a negative control. The supernatant was discarded, 50 µL RPMI 1640 medium containing 14 µL MTT (5 mg mL^−1) was added, and the cells were incubated for 4 h. The supernatant was removed again, and 150 µL DMSO was added in order to dissolve the formed formazan. A FLUOstar OPTIMA spectrophotometer was applied for colorimetric analysis (λ = 540 nm). The cytotoxicity was expressed by IC50 values (concentration which caused a 50% reduction in viable cells). IC50 values were calculated from three independent experiments.

Toxoplasma gondii = Toxoplasma gondii tachyzoite (RH strain) growth in infected Vero cells, infection index; assay type: cell-based; settings: after 72 h, means of n = 3, SD ± 15%, read-out: EC50 (T. gondii)
Description: Serial passages of cells of the Vero cell line (ATCC® CCL81™, Manassas, VA, USA) were applied for the cultivation of T. gondii tachyzoites of the RH strain (a gift from Dr. Saeed El-Ashram, State Key Laboratory for Agrobiotechnology, China Agricultural University, Beijing, China). Vero cells were cultured by using complete RPMI 1640 medium with heat-inactivated 10% FBS in a humidified 5% CO2 atmosphere, at 37 °C. The 96-well plates (5 × 10^3 cells/well in 200 µL RPMI 1640 medium) were used for the cultivation of the Vero cells and then incubated, at 37 °C, and 5% CO2 for one day, followed by removal of medium and washing the cells with PBS. Then, RPMI 1640 medium containing 2% FBS and T. gondii tachyzoites (RH strain) was given to the cells at a ratio of 5 (parasite):1 (Vero cells). After incubation, at 37 °C, and 5% CO2 for 5 h, cells were washed with PBS and then treated as described below.
Control: RPMI 1640 medium containing DMSO (1%)
Experimental: Medium + compounds (dissolved in DMSO) (50, 25, 12.5, 6.25, 3.13, 1.65, and 0.75 µg mL^−1).
After incubation, at 37 °C, and 5% CO2 for 72 h, the cells were washed with PBS, fixed in 10% formalin and stained with 1% toluidine blue. Examination of the cells and determination of the infection index (number of cells infected from 200 cells tested) of T. gondii were carried out with an inverted photomicroscope. The following equation was used for the calculation of the inhibition in %:Inhibition (%) = (I Control − I Experimental)/(I Control) × 100 where “I Control” refers to the infection index of untreated cells and “I Experimental” refers to the infection index of cells treated with test compounds.
Then, effects of test compounds on parasite growth were expressed as EC50 (effective concentration at 50%) values. EC50 values were obtained from three independent experiments.

[1] = tested on: Leishmania major promastigotes; assay: Leishmania major promastigote viability, MTT assay; assay type: cell-based; settings: Leishmania major promastigotes after 72 h, means of n = 3, SD ± 15%
macrophages = assay: Effects of test compounds on macrophages (toxicity); assay type: cell-based, BALB/c mice; settings: means of n = 3, SD ± 15%
[2] = tested on: Leishmania major amastigotes; assay: Leishmania major amastigotes in peritoneal macrophages, percentage of infected macrophages (Giemsa); assay type: cell-based; settings: Leishmania major amastigotes after 72 h, means of n = 3, SD ± 15%

EC50 ([1]; Leishmania major, 72 h) [µM] | melting point | EC50 ([2]; Leishmania major, 72 h) [µM] | EC50 [1] [µM] | EC50 [2] [µM] | SMILES | IC50 (Vero cells) [µM] | EC50 (Toxoplasma gondii) [µM] | IC50 (macrophages; Mus musculus, Macrophage) [µM] | IC50 (macrophages) [µM]
15.2 | > 240 °C (dec.) | 49.2 | – | – | N#CC1=C(n2cccc2)n2c(nc3ccccc32)NC1c1ccccc1F (centres unmarked) [Compound 4c, 4-Pyrrolo-2-(2-fluorophenyl)-1,2-dihydropyrimido[1,2-a]benzimidazole-3-carbonitrile] | 23.6 | 24.8 | 43.9 | –
28.9 | > 240 °C | 46.1 | – | – | N#CC1=C(n2cccc2)n2c(nc3ccccc32)NC1c1cc(F)cc(F)c1 (centres unmarked) [Compound 4b, 4-Pyrrolo-2-(3,5-difluorophenyl)-1,2-dihydropyrimido[1,2-a]benzimidazole-3-carbonitrile] | 32.4 | 18.2 | 39.9 | –
20.3 | > 260 °C (dec.) | 50.9 | – | – | N#CC1=C(n2cccc2)n2c(nc3ccccc32)NC1c1cccc(F)c1 (centres unmarked) [Compound 4a, 4-Pyrrolo-2-(3-fluorophenyl)-1,2-dihydropyrimido[1,2-a]benzimidazole-3-carbonitrile] | 34.9 | 33.2 | 41.4 | –
32.1 | > 260 °C | 51.5 | – | – | N#CC1=C(n2cccc2)n2c(nc3ccccc32)NC1c1ccc(F)cc1 (centres unmarked) [Compound 4d, 4-Pyrrolo-2-(4-fluorophenyl)-1,2-dihydropyrimido[1,2-a]benzimidazole-3-carbonitrile] | 41.4 | 34.9 | 47.3 | –

Further lines, the compound ahead of its results:

SMILES | EC50 ([1]; Leishmania major, 72 h) [µM] | melting point | EC50 ([2]; Leishmania major, 72 h) [µM] | EC50 [1] [µM] | EC50 [2] [µM] | IC50 (Vero cells) [µM] | EC50 (Toxoplasma gondii) [µM] | IC50 (macrophages; Mus musculus, Macrophage) [µM] | IC50 (macrophages) [µM]
O=C1C(O)=C([C@H]2CC[C@H](c3ccc(Cl)cc3)CC2)C(=O)c2ccccc21 [ATO, atovaquone, reference compound] | – | – | – | – | – | 9.5 | 0.07 | – | –
N#Cc1c(-c2cccc(F)c2)nc2nc3ccccc3n2c1N [Compound 3a, 4-Amino-2-(3-fluorophenyl)pyrimido[1,2-a]benzimidazole-3-carbonitrile] | 35.6 | > 370 °C (dec.) | 28 | – | – | 38.3 | 35.9 | 22.4 | –
N#CC1=C(N)n2c(nc3ccccc32)NC1c1ccc(F)cc1 (centres unmarked) [Compound 2d] | 14.4 | – | 26.9 | – | – | 26.9 | 27.8 | 19.3 | –
N#CC1=C(N)n2c(nc3ccccc32)NC1c1cccc(F)c1 (centres unmarked) [Compound 2a, 4-Amino-2-(3-fluorophenyl)-1,2-dihydropyrimido[1,2-a]benzimidazole-3-carbonitrile] | 0.2 to 0.4 | 216 to 217 °C (dec.) | 0.2 to 0.4 | 0.39 | 0.2 | 4.32 | 4.59 | 0.98 | –
C[C@@H]1[C@H](O)[C@@H](C)/C=C/C=C/C=C/C=C/C=C/C=C/C=C/[C@H](O[C@@H]2O[C@H](C)[C@@H](O)[C@H](N)[C@@H]2O)C[C@@H]2O[C@](O)(C[C@@H](O)C[C@@H](O)[C@H](O)CC[C@@H](O)C[C@@H](O)CC(=O)O[C@H]1C)C[C@H](O)[C@H]2C(=O)O [AmB, Amphotericin B, reference compound] | 0.83 | – | 0.47 | – | – | 7.7 | – | – | –
N#CC1=C(N)n2c(nc3ccccc32)NC1c1cc(F)cc(F)c1 (centres unmarked) [Compound 2b, 4-Amino-2-(3,5-difluorophenyl)-1,2-dihydropyrimido[1,2-a]benzimidazole-3-carbonitrile] | 108 | 279 to 280 °C | 22.9 | – | – | 33.1 | 43.6 | 28.5 | –
N#Cc1c(-c2ccc(F)cc2)nc2nc3ccccc3n2c1N [Compound 3d] | 36.9 | – | 26.1 | – | – | 43.5 | 41.9 | 20.1 | –
COc1cc(C2Nc3nc4ccccc4n3C(N)=C2C#N)cc(Br)c1OC (centres unmarked) [Compound 2e, 4-Amino-2-(3-bromo-4,5-dimethoxyphenyl)-1,2-dihydropyrimido[1,2-a]benzimidazole-3-carbonitrile] | 77.9 | 282 to 283 °C | 75.5 | – | – | 57.2 | 28.6 | 64 | 63.8
N#Cc1c(-c2cc(F)cc(F)c2)nc2nc3ccccc3n2c1N [Compound 3b, 4-Amino-2-(3,5-difluorophenyl)pyrimido[1,2-a]benzimidazole-3-carbonitrile] | 13.7 | > 370 °C (dec.) | 29 | – | – | 22.7 | 2.8 | 24.3 | –
N#CC1=C(N)n2c(nc3ccccc32)NC1c1cccnc1 (centres unmarked) [Compound 2f, 4-Amino-2-(3-pyridyl)-1,2-dihydropyrimido[1,2-a]benzimidazole-3-carbonitrile] | 53.4 | 289 to 290 °C | 116 | – | – | 106 | 60 | 86 | –
N#CC1=C(N)n2c(nc3ccccc32)NC1c1ccccc1F (centres unmarked) [Compound 2c] | 49.8 | – | 24.9 | – | – | 18.3 | 26.9 | 31.4 | –
N#Cc1c(-c2ccccc2F)nc2nc3ccccc3n2c1N [Compound 3c, 4-Amino-2-(2-fluorophenyl)pyrimido[1,2-a]benzimidazole-3-carbonitrile] | 32 | > 350 °C (dec.) | 27 | – | – | 25.7 | 20.8 | 21.1 | –
